Assays:
Assay type in all cases: cell-based
E. coli K12 [R1drd19] = experiment: Inhibition of biofilm formation (biofilm mass, OD540)
Experimental: (§1) Inhibition of biofilm formation by E. coli K12 [R1drd19], P. aeruginosa PAO1, and V harveyi BB120 by the addition of 10 μg/mL ursolic acid. For E. coli K12 [R1drd19], data were collected 16 hours after addition of ursolic acid to a 24 hour biofilm in LB medium; for P. aeruginosa PAO1, data were collected 18 hours after addition of ursolic acid with inoculation in LB medium plus 1% sodium citrate; and for V. harveyi BB120, data were collected 18 hours after addition of ursolic acid with inoculation in M9 medium. All biofilm mass readings at OD540 were normalized based on the reading of wild type without ursolic acid which was normalized to 1. One standard deviation is shown.

P. aeruginosa PAO1 = experiment: as above
Experimental: as §1

V. harveyi BB120 = experiment: as above
Experimental: as §1

E. coli JM109 = experiment: Inhibition of air-liquid interface biofilm; details: added with inoculation, E. coli JM109 in LB 0.2% glucose
Experimental: as §1
Example 1 was repeated, except ursolic acid was added with inoculation in E. coli JM109 grown in LB 0.2% glucose.

E. coli K12 genes = experiment: DNA microarray, genes repressed by ursolic acid
Experimental: To identify the genes controlled by ursolic acid, E. coli K12 was grown in LB medium overnight, diluted 1:100 in fresh LB supplemented with 0, 10, or 30 μg/mL ursolic acid. The same amount of ethanol was supplemented to eliminate solvent effects. The cultures were grown to an OD600 of 0.9. The cells were centrifuged in a microcentrifuge for 15 seconds at 20,000×g in mini bead beater tubes (Biospec, Bartlesville, Okla.) that were cooled to −80° C. before sampling. The cell pellets were flash frozen in a dry ice-ethanol bath and stored at −80° C. until RNA isolation.
To lyse the cells, 1.0 mL RLT buffer (Qiagen, Inc., Valencia, Calif.) and 0.2 mL 0.1 mm zirconia/silica beads (Biospec) were added to the frozen bead beater tubes containing the cell pellets. The tubes were closed tightly and beat for 30 seconds at the maximum speed in a mini bead beater (cat. no. 3110BX, Biospec). The total RNA was isolated by following the protocol of the RNeasy Mini Kit (Qiagen) including an on-column DNase digestion with RNase-free DNase I (Qiagen). OD260 was used to quantify the RNA yield. OD260/OD280 and 23S/16S rRNA were measured using a 2100 Bioanalyzer (Agilent Technologies, Palo Alto, Calif.) to check the purity and integrity of RNA (RNeasy Mini handbook, Qiagen).
The E. coli DNA microarrays were prepared as described previously by Wei, Y. et al (Journal of Bacteriology, 2001, 183 (2) p. 545-556). Each gene probe was synthesized by PCR and has the size of the full open reading frame (200-2000 nt). The double-strand PCR products were denatured in 50% dimethyl sulfoxide and spotted onto aminosilane slides (Full Moon Biosystems, Sunnyvale, Calif.) as probes to hybridize with the mRNA-derived cDNA samples. It has been shown that each array can detect 4228 of the 4290 E. coli ORFs. Each gene has two spots per slide.
Briefly, the total RNA from the E. coli K12 samples grown with and without ursolic acid was first converted into labeled cDNA. […] The Cy3-labeled sample without ursolic acid and the Cy5-labeled ursolic acid sample (with 10 or 30 μg/mL ursolic acid) were hybridized on the first slide. Similarly, the Cy5-labeled sample without ursolic acid and the Cy3-labeled ursolic acid sample were hybridized on the second slide. Since each gene has two spots on a slide, the two hybridizations generated eight data points for each gene (four points for the sample without ursolic acid and four points for the ursolic acid sample). The microarray experiments with dye-swapping were repeated for both concentrations of ursolic acid.
The DNA microarrays were incubated in prehybridization solution (3.5×SSC [1×SSC is 0.15 M NaCl plus 0.015 M sodium citrate] [Invitrogen], 0.1% sodium dodecyl sulfate [SDS] [Invitrogen], and 0.1% bovine serum albumin [Invitrogen]) at 45° C. for 20 min. The arrays were rinsed with double-distilled water and were spun dry by centrifugation. Labeled cDNA (6 μg) was concentrated to 10 μl of total volume and was mixed with 10 μl of 4×cDNA hybridization solution (Full Moon Biosystems) and 20 μl of formamide (EM Science, Gibbstown, N.J.). The hybridization mix was heated to 95° C. for 2 min and was added to the DNA microarrays; each array was covered with a coverslip (Corning, Big Flats, N.Y.) and was incubated overnight at 37° C. for hybridization. When the hybridization was finished, the coverslips were removed in 1×SSC-0.1% SDS at room temperature, and the arrays were washed once for 5 min in 1×SSC-0.1% SDS at 40° C., twice for 10 min in 0.1×SSC-0.1% SDS at 40° C., and twice for 1 min in 0.1×SSC at 40° C. The arrays were quickly rinsed by dipping in room-temperature double-distilled water and were then spun dry by centrifugation. The hybridized slides were scanned with the Generation III Array Scanner (Molecular Dynamics Corp.). Readings at 570 and 670 nm was used to quantify the probes labeled with Cy3 and Cy5 separately. The signal was quantified with Array Vision 4.0 or 6.0 software (Imaging Research, St. Catherines, Ontario, Canada). […]

Structure (SMILES): C[C@H]1[C@H](C)CC[C@]2(C(=O)O)CC[C@]3(C)C(=CC[C@@H]4[C@@]5(C)CC[C@H](O)C(C)(C)[C@@H]5CC[C@]43C)[C@H]12 [ursolic acid]
- formation of biofilms (E. coli K12 [R1drd19]): reduces or inhibits the formation of biofilms
- formation of biofilms (P. aeruginosa PAO1): reduces or inhibits the formation of biofilms
- formation of biofilms (V. harveyi BB120): reduces or inhibits the formation of biofilms
- air-liquid interface biofilm (E. coli JM109): inhibited air-liquid interface biofilm
- ER (expression ratio) gene arsC (E. coli K12 genes; 10 μg/mL ursolic acid): −1.5
- ER (expression ratio) gene b0309 (E. coli K12 genes; 10 μg/mL ursolic acid): −1.7
- ER (expression ratio) gene b0484 (E. coli K12 genes; 10 μg/mL ursolic acid): −1.5
- ER (expression ratio) gene b0485 (E. coli K12 genes; 10 μg/mL ursolic acid): −1.8
- ER (expression ratio) gene b0829 (E. coli K12 genes; 10 μg/mL ursolic acid): −1.5
- ER (expression ratio) gene b1729 (E. coli K12 genes; 10 μg/mL ursolic acid): −5.6
- ER (expression ratio) gene b2379 (E. coli K12 genes; 10 μg/mL ursolic acid): −1.5
- ER (expression ratio) gene b2789 (E. coli K12 genes; 10 μg/mL ursolic acid): −1.9
- ER (expression ratio) gene cspF (E. coli K12 genes; 10 μg/mL ursolic acid): −1.6
- ER (expression ratio) gene cspG (E. coli K12 genes; 10 μg/mL ursolic acid): −2.5
- ER (expression ratio) gene cysB (E. coli K12 genes; 10 μg/mL ursolic acid): −1.7
- ER (expression ratio) gene cysD (E. coli K12 genes; 10 μg/mL ursolic acid): −2.5
- ER (expression ratio) gene cysI (E. coli K12 genes; 10 μg/mL ursolic acid): −1.5
- ER (expression ratio) gene cysJ (E. coli K12 genes; 10 μg/mL ursolic acid): −3.6
- ER (expression ratio) gene cysK (E. coli K12 genes; 10 μg/mL ursolic acid): −3.6
- ER (expression ratio) gene frvR (E. coli K12 genes; 10 μg/mL ursolic acid): −5.4
- ER (expression ratio) gene gntU_1 (E. coli K12 genes; 10 μg/mL ursolic acid): −1.5
- ER (expression ratio) gene hdeA (E. coli K12 genes; 10 μg/mL ursolic acid): −1.7
- ER (expression ratio) gene hdeB (E. coli K12 genes; 10 μg/mL ursolic acid): −1.8
- ER (expression ratio) gene narH (E. coli K12 genes; 10 μg/mL ursolic acid): −1.6
- ER (expression ratio) gene pheM (E. coli K12 genes; 10 μg/mL ursolic acid): −1.6
- ER (expression ratio) gene pheP (E. coli K12 genes; 10 μg/mL ursolic acid): −1.5
- ER (expression ratio) gene rimL (E. coli K12 genes; 10 μg/mL ursolic acid): −1.5
- ER (expression ratio) gene rmf (E. coli K12 genes; 10 μg/mL ursolic acid): −1.5
- ER (expression ratio) gene rpml (E. coli K12 genes; 10 μg/mL ursolic acid): −1.6
- ER (expression ratio) gene slp (E. coli K12 genes; 10 μg/mL ursolic acid): −1.5
- ER (expression ratio) gene ugpB (E. coli K12 genes; 10 μg/mL ursolic acid): −1.4
- ER (expression ratio) gene ybhG (E. coli K12 genes; 10 μg/mL ursolic acid): −1.4
- ER (expression ratio) gene ybiK (E. coli K12 genes; 10 μg/mL ursolic acid): −2.4
- ER (expression ratio) gene yeeD (E. coli K12 genes; 10 μg/mL ursolic acid): −2.3
- ER (expression ratio) gene yeeE (E. coli K12 genes; 10 μg/mL ursolic acid): −13
- ER (expression ratio) gene yhaD (E. coli K12 genes; 10 μg/mL ursolic acid): −1.6
- ER (expression ratio) gene yhaF (E. coli K12 genes; 10 μg/mL ursolic acid): −1.5
- ER (expression ratio) gene yhaG (E. coli K12 genes; 10 μg/mL ursolic acid): −2
- ER (expression ratio) gene yhaU (E. coli K12 genes; 10 μg/mL ursolic acid): −1.9
- ER (expression ratio) gene yjeB (E. coli K12 genes; 10 μg/mL ursolic acid): −1.4
- ER (expression ratio) gene arsC (E. coli K12 genes; 30 μg/mL ursolic acid): 1.4
- ER (expression ratio) gene b0309 (E. coli K12 genes; 30 μg/mL ursolic acid): −1.3
- ER (expression ratio) gene b0484 (E. coli K12 genes; 30 μg/mL ursolic acid): −1.1
- ER (expression ratio) gene b0485 (E. coli K12 genes; 30 μg/mL ursolic acid): −1.3
- ER (expression ratio) gene b0829 (E. coli K12 genes; 30 μg/mL ursolic acid): −1.5
- ER (expression ratio) gene b1729 (E. coli K12 genes; 30 μg/mL ursolic acid): −2
- ER (expression ratio) gene b2379 (E. coli K12 genes; 30 μg/mL ursolic acid): 1
- ER (expression ratio) gene b2789 (E. coli K12 genes; 30 μg/mL ursolic acid): −2.5
- ER (expression ratio) gene cspF (E. coli K12 genes; 30 μg/mL ursolic acid): −1.1
- ER (expression ratio) gene cspG (E. coli K12 genes; 30 μg/mL ursolic acid): −1.7
- ER (expression ratio) gene cysB (E. coli K12 genes; 30 μg/mL ursolic acid): −1.4
- ER (expression ratio) gene cysD (E. coli K12 genes; 30 μg/mL ursolic acid): −2.5
- ER (expression ratio) gene cysI (E. coli K12 genes; 30 μg/mL ursolic acid): −1.7
- ER (expression ratio) gene cysJ (E. coli K12 genes; 30 μg/mL ursolic acid): −3.3
- ER (expression ratio) gene cysK (E. coli K12 genes; 30 μg/mL ursolic acid): −3.3
- ER (expression ratio) gene frvR (E. coli K12 genes; 30 μg/mL ursolic acid): −2
- ER (expression ratio) gene gntU_1 (E. coli K12 genes; 30 μg/mL ursolic acid): −1.4
- ER (expression ratio) gene hdeA (E. coli K12 genes; 30 μg/mL ursolic acid): −1.4
- ER (expression ratio) gene hdeB (E. coli K12 genes; 30 μg/mL ursolic acid): −1.4
- ER (expression ratio) gene narH (E. coli K12 genes; 30 μg/mL ursolic acid): −1.4
- ER (expression ratio) gene pheM (E. coli K12 genes; 30 μg/mL ursolic acid): 1
- ER (expression ratio) gene pheP (E. coli K12 genes; 30 μg/mL ursolic acid): −1.1
- ER (expression ratio) gene rimL (E. coli K12 genes; 30 μg/mL ursolic acid): 1
- ER (expression ratio) gene rmf (E. coli K12 genes; 30 μg/mL ursolic acid): 1
- ER (expression ratio) gene rpml (E. coli K12 genes; 30 μg/mL ursolic acid): 1
- ER (expression ratio) gene slp (E. coli K12 genes; 30 μg/mL ursolic acid): −1.6
- ER (expression ratio) gene ugpB (E. coli K12 genes; 30 μg/mL ursolic acid): −1.5
- ER (expression ratio) gene ybhG (E. coli K12 genes; 30 μg/mL ursolic acid): −1.4
- ER (expression ratio) gene ybiK (E. coli K12 genes; 30 μg/mL ursolic acid): -2.2
- ER (expression ratio) gene yeeD (E. coli K12 genes; 30 μg/mL ursolic acid): −1.4
- ER (expression ratio) gene yeeE (E. coli K12 genes; 30 μg/mL ursolic acid): −2
- ER (expression ratio) gene yhaD (E. coli K12 genes; 30 μg/mL ursolic acid): −2.6
- ER (expression ratio) gene yhaF (E. coli K12 genes; 30 μg/mL ursolic acid): −2.4
- ER (expression ratio) gene yhaG (E. coli K12 genes; 30 μg/mL ursolic acid): −2.2
- ER (expression ratio) gene yhaU (E. coli K12 genes; 30 μg/mL ursolic acid): −4.2
- ER (expression ratio) gene yjeB (E. coli K12 genes; 30 μg/mL ursolic acid): 1
